Reference: patent US11927589B2, “Carrier peptide fragment for nucleolar localization and use thereof” (TOAGOSEI CO., LTD., priority 2021, dated 2024)
FAM = FAM: 5(6)-carboxyfluorescein, a fluorescent dye

What was measured:
HeLa cells [1] = test: Evaluation of cell membrane permeability by flow cytometry (Test 1); conditions: 10 μM, 20 hours incubation
Description: HeLa cells were cultured in a DMEM (Dulbecco's modified Eagle's medium (Cat No. 043-30085 commercially available from FUJIFILM Wako Pure Chemical Corporation)) containing 10% FBS (fetal bovine serum), which is a general culture medium.
HeLa cells adhered to a culture plate were washed with PBS and a 0.25% trypsin/EDTA solution was then added, and the cells were incubated at 37° C. for 3 minutes. After the incubation, a 10% FBS-containing DMEM was added, trypsin was inactivated, and centrifugation was then performed at 150×g for 5 minutes to precipitate cells. […]
For the obtained cells (cell pellets), the cell permeability of Sample 1 was analyzed using a flow cytometer. […]
Using the flow cytometer, gating was performed based on forward scatter (FSC) and side scatter (SSC), a gate was set for a cell population to be analyzed, and the fluorescent intensity was measured for the cell population within such a gate. […] For measurement of the fluorescent intensity, a fluorescence detector FL2 (optimal detection wavelength of about 543 nm) of the flow cytometer that can detect a fluorescence wavelength of FAM was used. The measurement results were analyzed using commercially available analysis software “FlowJo (registered trademark)” (commercially available from TreeStar) to obtain a mean fluorescent intensity (MFI) of the cell population to be measured.

[2] = Cytotoxicity examination by the inventors; type: cell-based
Description: In all of the amino acid sequences shown in SEQ ID NOs 1 to 4, 11 amino acid residues among 13 amino acid residues are composed of basic amino acids (arginine and lysine). […] On the other hand, in the carrier peptide fragment composed of any of the amino acid sequences shown in SEQ ID NOs 1 to 4, the inventors have confirmed through examination that, even if the concentration of the carrier peptide fragment is 100 μM, there is almost no cytotoxicity, and the cytotoxicity is much lower than that of R8. […] Although the details of the mechanism are not clear, in the carrier peptide fragment disclosed here, it is estimated that inclusion of a threonine residue and a leucine residue which are neutral amino acids at the 4th and 5th positions in addition to basic amino acids contributes to reduction of cytotoxicity.

HeLa cells [3] = test: Intracellular localization by confocal laser scanning microscopy (Test 2); type: cell-based, human; conditions: 5 μM, 20 hours, methanol-fixed, DAPI/FAM merged images
Description: In this test, localization of Samples 1 to 5 in HeLa cells was analyzed. HeLa cells were seeded on collagen-coated 8-well slides at about 2×10^4 cells/well, and cultured overnight in the presence of 5% CO2 at 37° C. A 10% FBS-containing DMEM was used as the cell culture solution.
Then, the supernatant (culture solution) was removed, ice-cooled PBS was added, and washing on ice was performed three times. Then, ice-cooled methanol was added, the sample was left at −20° C. for 10 minutes, and the cells were immobilized. Then, methanol was removed, and washing was then performed three times with ice-cooled PBS. Then, a DAPI-containing encapsulant (commercially available from ThemoFisher Scientific) and a cover glass were used for encapsulation and fluorescence observation was performed under a confocal laser scanning microscope. […] Here, all FIGS. 2A to 2E show images in which fluorescent images of DAPI and FAM were merged.

Q: Which “relative value of MFI (mean fluorescent intensity), MFI value of Example 6 set to 1” value (HeLa cells [1]; flow cytometer FL2) does the source give for 5(6)-carboxyfluorescein [Example 6] here?
A: 1

Q: Which cytotoxicity [2] does the source give for `N=C(N)NCCC[C@H](NC(=O)[C@H](CCCNC(=N)N)NC(=O)[C@H](CCCNC(=N)N)NC(=O)[C@H](CCCNC(=N)N)NC(=O)[C@H](CCCNC(=N)N)NC(=O)[C@H](CCCNC(=N)N)NC(=O)[C@H](CCCNC(=N)N)NC(=O)[C@@H](N)CCCNC(=N)N)C(=O)O` [Example R8, octaarginine] here?
A: relatively high

Q: Which “MFI value compared with the MFI value of Example 5” value (HeLa cells [1]) does the source give for “Ac-KKRTLRKKKRKKR-FAM (Ac-KKRTLRKKKRKKR-{FAM}) [Example 1]” here?
A: more than three times as high

Q: Which “fluorescence of FAM observed in the nucleolus” value (HeLa cells [3]) does the source give for “Ac-KKRTLRKNDRKKR-FAM (Ac-KKRTLRKNDRKKR-{FAM}) [Example 5]” here?
A: slightly observed in the nucleolus
